In patent US20160136192A1, “METHODS AND COMPOSITIONS FOR ENHANCING COGNITIVE PERFORMANCE” (ABBOTT LABORATORIES, priority 2013, published 2016):

Tested on: NMDAR dependant hippocampal LTP
Assay: NMDAR dependant LTP (fEPSP amplitude) induced by weak tetanus, recorded on hippocampal brain slices in vitro with MEA
Type: cell-based, mice
Settings: mouse hippocampal slices, 10 stimulations at 100 Hz for 0.1 seconds

Compound | effect on NMDAR dependant hippocampal LTP induced by weak tetanic stimulation (10 micromolar (μM)) | effect on NMDAR dependant hippocampal LTP induced by weak tetanic stimulation (15 micromolar) | effect on NMDAR dependant hippocampal LTP induced by weak tetanic stimulation (20 micromolar (μM)) | effect on NMDAR dependant hippocampal LTP induced by weak tetanic stimulation (30 micromolar (μM)) | effect on NMDAR dependant hippocampal LTP induced by weak tetanic stimulation (40 micromolar) | effect on NMDAR dependant hippocampal LTP induced by weak tetanic stimulation (50 micromolar)
C[N+](C)(C)CCO.[Cl-] [choline chloride, Choline chloride] | did not produce any effect | did not produce any effect | did not produce any effect | significantly enhanced | significantly enhanced | significantly enhanced
CCCCCCCC/C=C\CCCCCCCC(=O)OCC [oleic acid (ethyl ester), Oleic acid ethyl ester] | did not produce any effect | – | significantly enhanced | significantly enhanced | – | –
